Values of other authors, collected in PMC11678782, “The Antioxidant and Anti-Inflammatory Activities of the Methanolic Extract, Fractions, and Isolated Compounds from Eriosema montanum Baker f. (Fabaceae)” (Molecules, 2024).

Tested on: LPS-induced NO production
Set-up: method as in PMID 20183278, PMID 27087823, PMID 32253713
Settings: cited from earlier work

O=c1c(-c2ccc(O)cc2)coc2cc(O[C@@H]3O[C@H](CO)[C@@H](O)[C@H](O)[C@H]3O)cc(O)c12 [Compound 5, genistin]
Effect on LPS-induced NO production: decreases LPS-induced NO production
